# According to patent US9861616B2, “Methods for treating respiratory diseases and formulations therefor” (priority 2013, dated 2018):
# Columns and labels:
# P. aeruginosa (PA) = test: MIC by microdilution, 36 clinical and laboratory strains with known efflux phenotype; format: cell-based
# How it was run: (§1)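 Microdilution MICs against P. aeruginosa, including reference PAO1 and efflux-overexpressing clinical PA12, in cation-adjusted Mueller-Hinton broth or RPMI with 10% fetal calf serum, or MH broth with increasing serum. PaβN (50 mg/L) served as efflux inhibitor and EGTA (5 mM) as outer-membrane disruptor.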
# P. aeruginosa PA12 = test: MIC by microdilution with PaβN or EGTA, clinical isolate overexpressing efflux pumps; format: cell-based
# How it was run: as §1
# TNFα release = test: LPS-induced TNFα release in PMA-differentiated U937 cells (ELISA); format: cell-based, human
# How it was run: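 U937 cells differentiated to macrophage-like state with PMA (50 ng/mL, 48 h) in RPMI/10% FBS, then stimulated with LPS in presence of macrolides. TNFα in supernatant measured by sandwich ELISA; means±SEM of three experiments, IC50 computed from cytokine inhibition.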
# [1] = system: MRSA strains from CF patients; test: Microdilution MICs against 40 MRSA strains from CF patients; format: cell-based, S. aureus
# Procedure: Two strains each of mucoid P. aeruginosa (both pyocyanin positive) and […] MRSA (only one strain with gold colonies) isolated from patients at a CF clinic were tested. Additionally, 2 B. cepacia strains were acquired, from Hershey Medical Center. All strains were identified by standard methods. Only one strain per patient was tested. MLVA was done on all strains to examine clonality, and confirmed that examination is not taking place on only one or a few clones. Strains will be stored in skim milk at −70° C. until use.
# Original MICs of each strain to CEM-101 and other comparators were tested by CLSI microdilution methodology. Trays were obtained from Trek, Inc., Cleveland, Ohio. Time-kill macrobroth MIC dilution by CLSI was performed for all synergy testing.
# [2] = 40 MRSA strains from CF patients
smiles,measurement,setting,value
"CC[C@H]1OC(=O)[C@@](C)(F)C(=O)[C@H](C)[C@@H](O[C@@H]2O[C@H](C)C[C@H](N(C)C)[C@H]2O)[C@](C)(OC)C[C@@H](C)C(=O)[C@H](C)[C@H]2N(CCCCn3cc(-c4cccc(N)c4)nn3)C(=O)O[C@]12C [CEM-101, solithromycin]",difference in MIC in the presence of efflux pump inhibitors,"P. aeruginosa (PA); compared with the other macrolides, Table 2 strains",smaller difference
same,MIC,"P. aeruginosa (PA); strain 1, efflux AB+, MHB",128 µg/mL
same,MIC,"P. aeruginosa (PA); strain 1, efflux AB+, RPMI",2 µg/mL
same,MIC,"P. aeruginosa (PA); strain 2, efflux CD+, MHB",256 µg/mL
same,MIC,"P. aeruginosa (PA); strain 2, efflux CD+, RPMI",8 µg/mL
same,MIC,"P. aeruginosa (PA); strain 3, efflux EF+, MHB",8 µg/mL
same,MIC,"P. aeruginosa (PA); strain 3, efflux EF+, RPMI",1 µg/mL
same,MIC,"P. aeruginosa (PA); strain 4, efflux XY+, MHB",128 µg/mL
same,MIC,"P. aeruginosa (PA); strain 4, efflux XY+, RPMI",4 µg/mL
same,MIC,"P. aeruginosa (PA); strain 11, efflux AB + CD+, MHB",16 µg/mL
same,MIC,"P. aeruginosa (PA); strain 11, efflux AB + CD+, RPMI",2 µg/mL
same,MIC,"P. aeruginosa (PA); strain 12, efflux AB + CD + EF + XY+, MHB",128 µg/mL
same,MIC,"P. aeruginosa (PA); strain 12, efflux AB + CD + EF + XY+, RPMI",4 µg/mL
same,MIC,"P. aeruginosa (PA); strain 16, efflux AB + XY+, MHB",32 µg/mL
same,MIC,"P. aeruginosa (PA); strain 16, efflux AB + XY+, RPMI",4 µg/mL
same,MIC,"P. aeruginosa (PA); strain 21, efflux AB+, MHB",128 µg/mL
same,MIC,"P. aeruginosa (PA); strain 21, efflux AB+, RPMI",4 µg/mL
same,MIC,"P. aeruginosa (PA); strain 22, efflux XY+, MHB",64 µg/mL
same,MIC,"P. aeruginosa (PA); strain 22, efflux XY+, RPMI",4 µg/mL
same,MIC,"P. aeruginosa (PA); strain 40, efflux EF+, MHB",32 µg/mL
same,MIC,"P. aeruginosa (PA); strain 40, efflux EF+, RPMI",4 µg/mL
same,MIC,"P. aeruginosa (PA); strain 41, efflux CD+, MHB",256 µg/mL
same,MIC,"P. aeruginosa (PA); strain 41, efflux CD+, RPMI",4 µg/mL
same,MIC,"P. aeruginosa (PA); strain 48, efflux CD + EF + XY+, MHB",128 µg/mL
same,MIC,"P. aeruginosa (PA); strain 48, efflux CD + EF + XY+, RPMI",4 µg/mL
same,MIC,"P. aeruginosa (PA); strain 49, efflux CD + EF + XY+, MHB",128 µg/mL
same,MIC,"P. aeruginosa (PA); strain 49, efflux CD + EF + XY+, RPMI",4 µg/mL
same,MIC,"P. aeruginosa (PA); strain 63, efflux AB + EF + XY+, MHB",64 µg/mL
same,MIC,"P. aeruginosa (PA); strain 63, efflux AB + EF + XY+, RPMI",4 µg/mL
same,MIC,"P. aeruginosa (PA); strain 68, efflux AB + XY+, MHB",64 µg/mL
same,MIC,"P. aeruginosa (PA); strain 68, efflux AB + XY+, RPMI",4 µg/mL
same,MIC,"P. aeruginosa (PA); strain 133, efflux EF + XY+, MHB",64 µg/mL
same,MIC,"P. aeruginosa (PA); strain 133, efflux EF + XY+, RPMI",4 µg/mL
same,MIC,"P. aeruginosa (PA); strain 156, efflux EF + XY+, MHB",64 µg/mL
same,MIC,"P. aeruginosa (PA); strain 156, efflux EF + XY+, RPMI",2 µg/mL
same,MIC,"P. aeruginosa (PA); strain 168B, efflux CD + XY+, MHB",128 µg/mL
same,MIC,"P. aeruginosa (PA); strain 168B, efflux CD + XY+, RPMI",4 µg/mL
same,MIC,"P. aeruginosa (PA); strain 207, efflux AB + EF + XY+, MHB",32 µg/mL
same,MIC,"P. aeruginosa (PA); strain 207, efflux AB + EF + XY+, RPMI",4 µg/mL
same,MIC,"P. aeruginosa (PA); strain 266B, efflux AB + CD+, MHB",256 µg/mL
same,MIC,"P. aeruginosa (PA); strain 266B, efflux AB + CD+, RPMI",4 µg/mL
same,MIC,"P. aeruginosa (PA); strain 333A, efflux AB + EF+, MHB",128 µg/mL
same,MIC,"P. aeruginosa (PA); strain 333A, efflux AB + EF+, RPMI",2 µg/mL
same,MIC,"P. aeruginosa (PA); strain 335, efflux AB + EF+, MHB",128 µg/mL
same,MIC,"P. aeruginosa (PA); strain 335, efflux AB + EF+, RPMI",2 µg/mL
same,MIC,"P. aeruginosa (PA); strain 391, efflux EF−, MHB",32 µg/mL
same,MIC,"P. aeruginosa (PA); strain 391, efflux EF−, RPMI",2 µg/mL
same,MIC,"P. aeruginosa (PA); strain 392, efflux CD−, MHB",16 µg/mL
same,MIC,"P. aeruginosa (PA); strain 392, efflux CD−, RPMI",1 µg/mL
same,MIC,"P. aeruginosa (PA); strain 394, efflux XY−, MHB",32 µg/mL
same,MIC,"P. aeruginosa (PA); strain 394, efflux XY−, RPMI",4 µg/mL
same,MIC,"P. aeruginosa (PA); strain 395, efflux HI−, MHB",64 µg/mL
same,MIC,"P. aeruginosa (PA); strain 395, efflux HI−, RPMI",2 µg/mL
same,MIC,"P. aeruginosa (PA); strain 396, ompH−, MHB",8 µg/mL
same,MIC,"P. aeruginosa (PA); strain 396, ompH−, RPMI",2 µg/mL
same,MIC,"P. aeruginosa (PA); strain 397, efflux AB−, MHB",2 µg/mL
same,MIC,"P. aeruginosa (PA); strain 397, efflux AB−, RPMI",1 µg/mL
same,MIC,"P. aeruginosa (PA); strain 398, efflux CD−, MHB",4 µg/mL
same,MIC,"P. aeruginosa (PA); strain 398, efflux CD−, RPMI",2 µg/mL
same,MIC,"P. aeruginosa (PA); strain 399, efflux AB − EF−, MHB",8 µg/mL
same,MIC,"P. aeruginosa (PA); strain 399, efflux AB − EF−, RPMI",1 µg/mL
same,MIC,"P. aeruginosa (PA); strain 400, efflux XY−, MHB",4 µg/mL
same,MIC,"P. aeruginosa (PA); strain 400, efflux XY−, RPMI",1 µg/mL
same,MIC,"P. aeruginosa (PA); strain 401, ompH−, MHB",2 µg/mL
same,MIC,"P. aeruginosa (PA); strain 401, ompH−, RPMI",2 µg/mL
same,MIC,"P. aeruginosa (PA); strain 403, efflux AB − CD − EF − XY−, MHB",4 µg/mL
same,MIC,"P. aeruginosa (PA); strain 403, efflux AB − CD − EF − XY−, RPMI",1 µg/mL
same,MIC,"P. aeruginosa (PA); strain 405, efflux AB − CD − EF − XY−, MHB",4 µg/mL
same,MIC,"P. aeruginosa (PA); strain 405, efflux AB − CD − EF − XY−, RPMI",1 µg/mL
same,MIC,"P. aeruginosa (PA); strain 434, efflux AB + CD + XY+, MHB",128 µg/mL
same,MIC,"P. aeruginosa (PA); strain 434, efflux AB + CD + XY+, RPMI",8 µg/mL
same,MIC,"P. aeruginosa (PA); strain PAO1, REFERENCE, MHB",128 µg/mL
same,MIC,"P. aeruginosa (PA); strain PAO1, REFERENCE, RPMI",4 µg/mL
same,MIC,"P. aeruginosa PA12; PA12, CA-MHB, EGTA 5 mM",16 µg/mL
same,MIC,"P. aeruginosa PA12; PA12, CA-MHB, PaβN 50 mg/L",4 µg/mL
same,MIC,"P. aeruginosa PA12; PA12, CA-MHB, control conditions (CT)",32 µg/mL
same,MIC,"P. aeruginosa PA12; PA12, RPMI, EGTA 5 mM",1 µg/mL
same,MIC,"P. aeruginosa PA12; PA12, RPMI, PaβN 50 mg/L",4 µg/mL
same,MIC,"P. aeruginosa PA12; PA12, RPMI, control conditions (CT)",4 µg/mL
same,IC50,"TNFα release; PMA-differentiated U937 cells, read-out: IC50, LPS-induced TNFα release",41.6 ± 1.9 µM
same,effect on TNFα production,TNFα release; at 100 μM,significantly inhibited
same,MICs against the strains it was active against,[1]; 21 of the 40 MRSA strains,0.06 to 0.25 µg/mL
same,share of strains against which active,"[1]; 21 of the 40 MRSA strains, MICs 0.06-0.25",52.5%
same,MIC50,[1]; [2],0.25 µg/mL
same,MIC90,[1]; [2],≧16 μg/mL
same,MICs against the remaining organisms,[1]; remaining 19 of 40 MRSA strains,≥ 16 µg/mL
